From patent US8710068B2, “Method of treating cancer using a survivin inhibitor” (The Trustees Of The University Of Pennsylvania, priority 2009, dated 2014)

Assays:
HeLa cells = test: Immunofluorescence microscopy of mitosis and spindle formation, HeLa; format: cell-based, human
Method: FIG. 8 illustrates the effect of S2 on mitotic spindle formation. HeLa cells were treated with S2 or DMSO for 15 hours. The cells were then fixed and subjected to immunostaining using the anti-β-Tubulin (green) and the anti-Survivin (red). Representative fluorescent microscopy images are shown. Note that short microtubule bundles form in S2-treated cells.
FIG. 9 illustrates the effect of S12 on mitosis. (A) HeLa cells were treated with S12, S2 or DMSO for 15 hours. The cells were then fixed and subjected to immunostaining using antibodies specific for Aurora B (green) and Survivin (red). DNA was stained with DAPI. Chromosome misalignment is indicated with the arrowheads. (B) Percentage of S12-treated cells in mitosis, in metaphase, in anaphase/telophase, or with misaligned chromosomes. (C) Percentage of S2-treated cells in mitosis, in metaphase, in anaphase/telophase, or with misaligned chromosomes. (D) HeLa cells were treated with S12 (10 μg/ml) or DMSO (control) for 15 hours. Cells were examined by PI staining of DNA content by FACS analysis.
FIG. 17 illustrates (A) FACS analysis of DNA content of HeLa cells treated with SBDO3. Note the accumulation of cells at the G2/M stage. Cell death was also observed (sub-G1 population); (B) Immuno-fluorescence microscopy analysis of cell treated with SBDO3. Note that the microtubule bundles of the mitotic spindle are disorganized. The chromosomes are not aligned properly and cells cannot go through metaphase.
FIG. 19 illustrates immunofluorescence studies of Survivin localization. (A) Untreated HeLa cells were subjected to immunostaining using a monoclonal anti-beta-Tubulin antibody (green) or a polyclonal anti-Survivin antibody (red). Images of cells at various stages of mitosis are shown. (B) HeLa cells were treated with S2 for 6 hours. Cells were immunostained with anti-beta-Tubulin antibody (green) or a polyclonal anti-survivin antibody (red). Note that localization of Survivin to the midbody was not affected by S2.
The effect of S2 and its analogs on the progression of cell cycle was examined by immunofluorescence microscopy. HeLa cells were plated on coverglass and treated with the Survivin-targeting compound S2 (10 μg/ml) or with the solvent DMSO alone for 15 hours. Cells were stained with the anti-β-Tubulin antibody (green) and anti-Survivin antibody (red). S2 can block cell division at the early stage of mitosis (FIG. 8). […] The microtubules in this case are very short, with one end attached to the centrosome and the other end to the kinetochore of the chromosomes (FIG. 8).
We extended the immunofluorescence studies to define the cell stage in the cells that were arrested by S2 or its analogs. Cells were also stained with anti-Aurora B antibody or anti-Survivin antibody in order to determine whether the localization of Survivin or Aurora B proteins are changed by these small molecules. Upon S2 or S12 treatment, we observed that cells accumulate in a stage with condensed chromosomes but without proper alignment of chromosomes on the mitotic plate (FIG. 9). The percentage of cells that progress to metaphase or beyond was reduced by S2 or S12 treatment (FIG. 9). […] Moreover, localization of Survivin to the midbody was also not affected.
Effects of the Survivin-targeting compound S12 on cell cycle progression was examined by immunofluorescence microscopy. HeLa cells were plated on coverglass and treated with S12 (40 μM) or with the solvent DMSO alone for 15 hours. […]

HCT116(p53+/+) cells = test: MTT viability assay, HCT116(p53+/+); format: cell-based; settings: 48 hours
Method: FIG. 4 illustrates the effects of S12 on proliferation of p53-positive and p53-negative cancer cells. (A) HCT116(p53+/+) or HCT116(p53−/−) cells were treated with DMSO or S12 at the indicated concentrations for 48 hours. The percentage of viable cells was evaluated by MTT assay.
Thus, inhibition of cell proliferation by S12 is independent of p53 status.

O=C(CC1(O)C(=O)Nc2ccc(Br)cc21)c1ccc2c(c1)OCO2 (stereo not drawn) [S12]
percentage of cells that progress to metaphase or beyond (HeLa cells; 15 hours): reduced
formation of the mitotic spindle (HeLa cells; 15 hours, immunofluorescence): can cause defects in formation of the mitotic spindle
localization of Survivin or Aurora B to the kinetochore (HeLa cells; immunofluorescence): did not alter
localization of Survivin to the midbody (HeLa cells; immunofluorescence): not affected
mitotic stage at which cells accumulate (HeLa cells; immunofluorescence): arrested by S12 in an early stage of mitosis
reduction of cell viability (HCT116(p53+/+) cells): equally effective at reducing cell viability
